Laboratory results taken from patent US12433876B2, “Septin inhibitors for treatment of cancers” (UNIVERSITY OF ROCHESTER, priority 2019, dated 2025).

How the values were obtained:
JIMT-1 cells = assay: Live/Dead dye flow cytometry, JIMT-1; assay type: cell-based; settings: JIMT-1, 3 μM, 48 hours, in vitro
Procedure: (§1) Cell Lines, Cell Culture, and Reagents. PANC-1, BXPC-3 and CAPAN-1, SKOV-3, MCF7, MDA-MD-231 cells were obtained from ATCC and maintained in DMEM, RPMI-1640 and IMDM supplemented with 10% fetal calf serum penicillin (100 units/mL), and streptomycin (100 μg/mL) at 37° C. with 5% CO2 in a humidified incubator. JIMT-1 cells were purchased from AddexBio Inc, USA (catalog number: C0006005) and maintained in 10% FBS and antibiotic supplemented DMEM. […] The reaction was monitored using thin-layer chromatography plates with DCM-MeOH or pure ethyl acetate as eluent. Spots were monitored in a UV chamber. […] ICM scores for each compound and their poses were calculated and compared with FCF. […] Cell viability of PANC-1, BXPC-3 and CAPAN-1 pancreatic cancer cells treated with UR214-9 was measured using the Cell Titre96R Aqueous One Solution Cell Proliferation Assay (Promega Corp., catalog number: G3580) following the procedure published earlier. […] The cells were analyzed by a 305 flow cytometer and relative live and dead cell population was calculated by inputting equal number of cells in both vehicle and control group.

PANC-1 cells = assay: Cell cycle analysis (PI, flow cytometry), PANC-1; assay type: cell-based, human
Procedure: For cell cycle analysis, BXPC-3 and PANC-1 and JIMT-1 cells (100,000/well) were seeded overnight in a 6 well dishes and allowed to adhere overnight. Media was replaced with fresh complete medium supplemented with DMSO or UR214-9 (100 nM and 3 μM) and cells were incubated for 72 hours. The media containing the drugs was removed and cells were washed twice with PBS and trypsinized gently. The cells were collected in 15 mL tubes, complete DMEM media was added to block trypsin and cells were centrifuged. The supernatants were removed and cells were gently treated with 70% cold-EtOH for 30 minutes. The fixed cells were centrifuged and the pellets obtained were collected in flow cytometry tubes and stained with preformulated PI/RNase solution (Cell Signaling Technology, catalog number: 4087s) for 30 minutes. The PI content was analyzed using a flow cytometer. Data was processed using Flowjo software.

septin-9 = assay: Immunoblot of septin-9 expression; assay type: cell-based; settings: 48 hours
BXPC-3 cells = assay: Live/Dead dye flow cytometry, BXPC-3; assay type: cell-based, human; settings: BXPC-3, 3 μM, 48 hours
Procedure: as §1

septin-6 = assay: Immunoblot of septin-6 expression; assay type: cell-based; settings: 48 hours
[1] = MDA-MB-231, JIMT-1 and MCF-7 cells, 10 and 30 μM

## O=C(Nc1cc(Cl)nc(Cl)c1)Nc1cccc(SC(F)(F)F)c1F [UR214-9]
JIMT-1 cells
  cell death: increased cell death
PANC-1 cells; PANC-1, 100 nM
  cell cycle distribution: minor S-phase arrest
PANC-1 cells; PANC-1, 3 μM
  cell cycle distribution: complete arrest in sub-G1/G0 phase
septin-9; [1]
  septin-9 protein expression levels (western blot): does not alter the protein expression levels
septin-9; PANC-1, 1.0 and 10.0 μM
  septin-9 expression (immunoblot): completely inhibited
BXPC-3 cells
  dead cells: 29.4%
septin-6; [1]
  septin-6 protein expression levels (western blot): does not alter the protein expression levels
septin-6; PANC-1, 1.0 and 10.0 μM
  septin-6 expression (immunoblot): unaffected
